Laboratory results taken from patent US7449466B2, “Cyclic aminophenyl sulfamate derivative” (Aska Pharmaceutical Co., Ltd., priority 2003, dated 2008).

Experiments:
steroid sulfatase = target: T1, steroid sulfatase (Rattus norvegicus, UniProt P15589); experiment: Steroid sulfatase inhibitory activity (in vivo), liver and uterus of ovariectomized rats after oral dosing; conditions: 0.5 mg/kg p.o. once a day for seven days, ovariectomized female SD rats
T1 construct: The livers and uteri were separately minced with scissors and suspended in cooled PBS containing 250 mM sucrose; from tissue; host or cells: liver and uterus of ovariectomized female SD rats (2,000 x g supernatant of homogenate)
T1 sequence (P15589 20-577): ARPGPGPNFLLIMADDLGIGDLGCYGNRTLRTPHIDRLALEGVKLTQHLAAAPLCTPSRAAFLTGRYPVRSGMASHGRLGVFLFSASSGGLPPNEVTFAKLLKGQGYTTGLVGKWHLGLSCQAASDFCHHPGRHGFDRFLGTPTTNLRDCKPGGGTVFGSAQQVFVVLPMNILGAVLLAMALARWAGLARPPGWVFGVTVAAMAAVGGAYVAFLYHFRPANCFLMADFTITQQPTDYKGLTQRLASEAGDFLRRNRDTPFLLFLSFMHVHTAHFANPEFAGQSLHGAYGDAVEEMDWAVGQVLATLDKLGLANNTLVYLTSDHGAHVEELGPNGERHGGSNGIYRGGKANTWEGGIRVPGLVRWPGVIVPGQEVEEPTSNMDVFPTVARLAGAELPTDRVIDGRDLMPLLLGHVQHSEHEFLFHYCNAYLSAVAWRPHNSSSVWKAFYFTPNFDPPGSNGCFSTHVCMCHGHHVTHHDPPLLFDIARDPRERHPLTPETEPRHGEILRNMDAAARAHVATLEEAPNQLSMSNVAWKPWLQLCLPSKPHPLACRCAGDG
Experimental: (2) Measurement of Steroid Sulfatase Inhibitory Activity (in vivo):
To six/group of female SD rats which had undergone ovariectomy, the test compounds as each suspended in 0.5% polyoxyethylene (20) sorbitan monooleate (Tween 80) were orally administered once a day for seven days. On the next day of the last administration, the rats were sacrificed under ether anesthesia. The bodies were anatomized and their livers and uteri were extracted, which were washed with cooled PBS and stored below −70° C. The livers and uteri were separately minced with scissors and suspended in cooled PBS containing 250 mM sucrose. Each of the suspensions was homogenized with a homogenizer under cooling with ice, from which neclei and cell debris were eliminated by centrifugation at 2,000×g for 20 minutes (4° C.). Protein concentration of each of the supernatant was measured by Bradford's method (Anal. Biochem., 72, 248-254 (1976)).
To 2-200 μg of the supernatant protein mass and 50 μL of 60 μM estrone-3-sulfate containing about 100 nCi of [6,7-^3H]estrone-3-sulfate (purchased from Perkin Elmer Life Sciences, Boston, Mass., U.S.A.; specific activity, 40-60 Ci/mmol), PBS was added to make the total amount 150 μL, followed by incubation at 37° C. for 30 minutes. After the incubation, the amount of hydrolyzed [6,7-^3H]estrone-3-sulfate was calculated by a method similar to the in vitro measurement in (1) above. Also steroid sulfatase activity per mg of the protein was calculated, and from the amount of the hydrolyzed [6,7-^3H]estrone-3-sulfate and the calculated steroid sulfatase activity per mg of the protein, the tested compound's steroid sulfatase inhibitory rate was determined.

[1] = test system: Chinese hamster lung fibroblast cells (CHL/IU cells); experiment: Chromosome aberration test using mammals' cultured cells; type: cell-based; conditions: short time and continuous treatment, negative = 5% or less
Experimental: (7) Chromosome Aberration Test Using Mammals' Cultured Cells, for Examining Genetic Toxicity: Presence of clastogenic activity of the test compounds on cultured cells was examined by a chromosome aberration test using mammals' cultured cells (Mutat. Res., 48, 337-354). The test was conducted by short time treatment method and continuous treatment method, using Chinese hamster lung fibroblast cells (CHL/IU cells). […] After the end of the culture, the medium was removed and 5 mL of a fresh medium containing solvent or a test compound at the concentration levels designed as above was added to the dishes where the continuous treatment was intended. In the short time treatment in which no S9mix was added, 3 ML of the fresh medium similar to the above was added, and where S9mix was added, 3 mL of a fresh medium formed by adding 0.5 mL of S9mix to 2.5 mL of the fresh medium similar to the above was added to the respective dishes. […] In the continuous treatment, the culture time was increased to 24 hours. In both the short time treatment and continuous treatment, 50 μL of 10 μg/mL colcemide solution was added at two hours preceding the end of the culture. After the end of the culture, the cells were detached by 0.25% trypsine solution and transferred into a centifugation tube. […]

NS(=O)(=O)Oc1ccc(N2CCN(CCCC3CCCCC3)CC2)cc1F [Example 24, 4-[4-(3-cyclohexylpropyl)piperazin-1-yl]-2-fluorophenyl-O-sulfamate]
Inhibitiory rate (0.5 mg/kg, p.o., %) Liver (steroid sulfatase; liver): 98.30% | Inhibitiory rate (0.5 mg/kg, p.o., %) Uterus (steroid sulfatase; uterus): 97.87% | Chromosome aberration test: Numerical abnormality [1]: negative | Chromosome aberration test: Structural abnormality [1]: negative
